Laboratory results as given in US10750743B2, “Pyridazinone herbicides” (E.I. DU PONT DE NEMOURS AND COMPANY, priority 2015, dated 2020).

Tests used:
Assay type in all cases: in vivo
[1] = test system: foxtail, giant (giant foxtail, Setaria faberii); assay: Test A postemergence application, visual injury rating; conditions: for Plant response rating (0 to 100 scale), Foxtail, Giant: 31 g ai/ha, 0 is no effect, 100 is complete control; for pest or weed control at 125 g/ha: Setaria faberi, post-emergence, 240 h, 125 g ai/ha, 0 to 100 scale, 0 no effect, 100 complete control, read-out: Foxtail, Giant plant response rating
Outline: (§1)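 Injury ratings, 0 (no effect) to 100 (complete control), were scored visually versus untreated plants roughly 10 d after treatment under greenhouse conditions. Treatments used surfactant-containing solvent formulations, sprayed onto soil preemergence or onto one- to two-leaf seedlings (2-10 cm) postemergence, grown in a loam-sand mix.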

[2] = test system: wheat (Triticum aestivum); assay: as above; conditions: for Plant response rating (0 to 100 scale), Wheat: 31 g ai/ha, 0 is no effect, 100 is complete control; for plant injury at 125 g/ha: Triticum aestivum, post-emergence, 240 h, 125 g ai/ha, 0 to 100 scale, 0 no effect, 100 complete control, read-out: Wheat plant response rating
Outline: as §1

[3] = test system: ragweed (common ragweed, Ambrosia elatior); assay: as above; conditions: for Plant response rating (0 to 100 scale), Ragweed: 31 g ai/ha, 0 is no effect, 100 is complete control; for pest or weed control at 125 g/ha: Ambrosia artemisiifolia, post-emergence, 240 h, 125 g ai/ha, 0 to 100 scale, 0 no effect, 100 complete control, read-out: Ragweed plant response rating
Outline: as §1

[4] = test system: blackgrass (Alopecurus myosuroides); assay: as above; conditions: Alopecurus myosuroides, post-emergence, 240 h, 0 to 100 scale, 0 no effect, 100 complete control, read-out: Blackgrass plant response rating; for pest or weed control at 31 g/ha: 31 g ai/ha; for pest or weed control at 125 g/ha: 125 g ai/ha
Outline: as §1

corn (Zea mays) = assay: as above; conditions: for Plant response rating (0 to 100 scale), Corn: 31 g ai/ha, 0 is no effect, 100 is complete control; for plant injury at 125 g/ha: Zea mays, post-emergence, 240 h, 125 g ai/ha, 0 to 100 scale, 0 no effect, 100 complete control, read-out: Corn plant response rating
Outline: as §1

kochia (Kochia scoparia) [5] = assay: as above; conditions: for Plant response rating (0 to 100 scale), Kochia: 31 g ai/ha, 0 is no effect, 100 is complete control; for pest or weed control at 125 g/ha: Bassia scoparia, post-emergence, 240 h, 125 g ai/ha, 0 to 100 scale, 0 no effect, 100 complete control, read-out: Kochia plant response rating
Outline: as §1

[6] = test system: ryegrass, It. (Italian ryegrass, Lolium multiflorum); assay: as above; conditions: for Plant response rating (0 to 100 scale), Ryegrass, It.: 31 g ai/ha, 0 is no effect, 100 is complete control; for pest or weed control at 125 g/ha: Lolium multiflorum, post-emergence, 240 h, 125 g ai/ha, 0 to 100 scale, 0 no effect, 100 complete control, read-out: Ryegrass, It. plant response rating
Outline: as §1

[7] = test system: pigweed (Amaranthus retroflexus); assay: as above; conditions: for Plant response rating (0 to 100 scale), Pigweed: 31 g ai/ha, 0 is no effect, 100 is complete control; for pest or weed control at 125 g/ha: Amaranthus retroflexus, post-emergence, 240 h, 125 g ai/ha, 0 to 100 scale, 0 no effect, 100 complete control, read-out: Pigweed plant response rating
Outline: as §1

[8] = test system: galium (catchweed bedstraw, Galium aparine); assay: as above; conditions: for Plant response rating (0 to 100 scale), Galium: 31 g ai/ha, 0 is no effect, 100 is complete control; for pest or weed control at 125 g/ha: Galium, post-emergence, 240 h, 125 g ai/ha, 0 to 100 scale, 0 no effect, 100 complete control, read-out: Galium plant response rating
Outline: as §1

[9] = test system: barnyardgrass (Echinochloa crus-galli); assay: as above; conditions: Echinochloa crus-galli, post-emergence, 240 h, 0 to 100 scale, 0 no effect, 100 complete control, read-out: Barnyardgrass plant response rating; for pest or weed control at 31 g/ha: 31 g ai/ha; for pest or weed control at 125 g/ha: 125 g ai/ha
Outline: as §1

[10] = test system: foxtail, giant (giant foxtail, Setaria faberii); assay: Test A preemergence, directed soil spray, visual injury rating; conditions: Setaria faberi, pre-emergence, 240 h, 0 is no effect, 100 is complete control, read-out: Plant response rating (0 to 100 scale), Foxtail, Giant; for pest or weed control at 31 g/ha: 31 g ai/ha; for pest or weed control at 125 g/ha: 125 g ai/ha
Outline: as §1

[11] = test system: ragweed (common ragweed, Ambrosia elatior); assay: as above; conditions: Ambrosia artemisiifolia, pre-emergence, 240 h, 0 is no effect, 100 is complete control, read-out: Plant response rating (0 to 100 scale), Ragweed; for pest or weed control at 31 g/ha: 31 g ai/ha; for pest or weed control at 125 g/ha: 125 g ai/ha
Outline: as §1

kochia (Kochia scoparia) [12] = assay: as above; conditions: Bassia scoparia, pre-emergence, 240 h, 0 is no effect, 100 is complete control, read-out: Plant response rating (0 to 100 scale), Kochia; for pest or weed control at 31 g/ha: 31 g ai/ha; for pest or weed control at 125 g/ha: 125 g ai/ha
Outline: as §1

[13] = test system: ryegrass, It. (Italian ryegrass, Lolium multiflorum); assay: as above; conditions: Lolium multiflorum, pre-emergence, 240 h, 0 is no effect, 100 is complete control, read-out: Plant response rating (0 to 100 scale), Ryegrass, It.; for pest or weed control at 31 g/ha: 31 g ai/ha; for pest or weed control at 125 g/ha: 125 g ai/ha
Outline: as §1

[14] = test system: pigweed (Amaranthus retroflexus); assay: as above; conditions: Amaranthus retroflexus, pre-emergence, 240 h, 0 is no effect, 100 is complete control, read-out: Plant response rating (0 to 100 scale), Pigweed; for pest or weed control at 31 g/ha: 31 g ai/ha; for pest or weed control at 125 g/ha: 125 g ai/ha
Outline: as §1

[15] = test system: barnyardgrass (Echinochloa crus-galli); assay: as above; conditions: Echinochloa crus-galli, pre-emergence, 240 h, 0 is no effect, 100 is complete control, read-out: Plant response rating (0 to 100 scale), Barnyardgrass; for pest or weed control at 31 g/ha: 31 g ai/ha; for pest or weed control at 125 g/ha: 125 g ai/ha
Outline: as §1

rice (Oryza sativa) = assay: Test B flooded paddy test, visual rating; conditions: Oryza sativa, 360 h; Flood, 250 g ai/ha, applied to paddy water, rated after 13 to 15 d; read-out: Rice plant response rating (0 to 100 scale, 0 is no effect, 100 is complete control)
Outline: (§2)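 Ratings use a 0-100 visual scale, where 100 is complete control, and compare treated plants with controls after 13 to 15 d of greenhouse growth. Compound went straight into paddy water kept 3 cm over the soil surface, applied to seedlings at the 2-leaf stage.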

[16] = test system: ducksalad (Heteranthera limosa); assay: Test B flooded paddy test, visual rating; conditions: Heteranthera limosa, 360 h; Flood, 250 g ai/ha, applied to paddy water, rated after 13 to 15 d; read-out: Ducksalad plant response rating (0 to 100 scale, 0 is no effect, 100 is complete control)
Outline: as §2

[17] = test system: barnyardgrass (Echinochloa crus-galli); assay: Test B flooded paddy test, visual rating; conditions: Echinochloa crus-galli, 360 h; Flood, 250 g ai/ha, applied to paddy water, rated after 13 to 15 d; read-out: Barnyardgrass plant response rating (0 to 100 scale, 0 is no effect, 100 is complete control)
Outline: as §2

SMILES	Plant response rating (0 to 100 scale), Foxtail, Giant [1]	pest or weed control at 125 g/ha [1] [%]	Plant response rating (0 to 100 scale), Wheat [2]	plant injury at 125 g/ha [2] [%]	Plant response rating (0 to 100 scale), Ragweed [3]	pest or weed control at 125 g/ha [3] [%]	pest or weed control at 31 g/ha [4] [%]	pest or weed control at 125 g/ha [4] [%]	Plant response rating (0 to 100 scale), Corn (corn (Zea mays))	plant injury at 125 g/ha (corn (Zea mays)) [%]	Plant response rating (0 to 100 scale), Kochia (kochia (Kochia scoparia) [5])	pest or weed control at 125 g/ha (kochia (Kochia scoparia) [5]) [%]	Plant response rating (0 to 100 scale), Ryegrass, It. [6]	pest or weed control at 125 g/ha [6] [%]	Plant response rating (0 to 100 scale), Pigweed [7]	pest or weed control at 125 g/ha [7] [%]	Plant response rating (0 to 100 scale), Galium [8]	pest or weed control at 125 g/ha [8] [%]	pest or weed control at 31 g/ha [9] [%]	pest or weed control at 125 g/ha [9] [%]	also measured
Cn1nc(Cl)c(O)c(-c2nccc3ccccc23)c1=O [Compound 67, 6-chloro-5-hydroxy-4-(1-isoquinolinyl)-2-methyl-3(2H)-pyridazinone]	0	0	0	0	0	10	0	0	0	0	0	40	20	60	40	50	20	40	0	0	pest or weed control at 31 g/ha [10]: 0%; pest or weed control at 125 g/ha [10]: 0%; pest or weed control at 31 g/ha [11]: 0%; pest or weed control at 125 g/ha [11]: 0%; pest or weed control at 31 g/ha (kochia (Kochia scoparia) [12]): 0%; pest or weed control at 125 g/ha (kochia (Kochia scoparia) [12]): 0%; pest or weed control at 31 g/ha [13]: 10%; pest or weed control at 125 g/ha [13]: 50%; pest or weed control at 31 g/ha [14]: 10%; pest or weed control at 125 g/ha [14]: 20%; pest or weed control at 31 g/ha [15]: 0%; pest or weed control at 125 g/ha [15]: 0%; plant injury at 250 g/ha (rice (Oryza sativa)): 0%; pest or weed control at 250 g/ha [16]: 0%; pest or weed control at 250 g/ha [17]: 0%
COc1c(C)nn(C)c(=O)c1-c1ccc(F)c2ccoc12 [Compound 69, 4-(4-fluoro-7-benzofuranyl)-5-methoxy-2,6-dimethyl-3(2H)-pyridazinone]	0	0	0	0	0	0	0	0	0	0	0	0	0	0	0	0	0	0	0	0	pest or weed control at 31 g/ha [10]: 0%; pest or weed control at 125 g/ha [10]: 0%; pest or weed control at 31 g/ha [11]: 0%; pest or weed control at 125 g/ha [11]: 0%; pest or weed control at 31 g/ha (kochia (Kochia scoparia) [12]): 0%; pest or weed control at 125 g/ha (kochia (Kochia scoparia) [12]): 0%; pest or weed control at 31 g/ha [13]: 0%; pest or weed control at 125 g/ha [13]: 0%; pest or weed control at 31 g/ha [14]: 0%; pest or weed control at 125 g/ha [14]: 0%; pest or weed control at 31 g/ha [15]: 0%; pest or weed control at 125 g/ha [15]: 0%; plant injury at 250 g/ha (rice (Oryza sativa)): 0%; pest or weed control at 250 g/ha [16]: 0%; pest or weed control at 250 g/ha [17]: 0%
